The first assay concerns the target T1, BRD4 BD2 (Homo sapiens, UniProt O60885, Y97A).
T1 construct: BRD4 (1-477) (Y97A) and (Y390A); made in house; host or cells: E. coli (pET15b vector)
In words: TR-FRET competition assay, BRD4 BD2. The note with it: single mutant tandem BRD4, read-out: pIC50 in the BRD4 BD2 assay (converted). In kind it is binding. The method, then:
Bromodomain binding was assessed utilising a time resolved fluorescent resonance energy transfer (TR-FRET) competition assay. To enable this approach a known, high affinity, pan-BET interacting small molecule was labelled with Alexa Fluor® 647, which is a far-red-fluorescent dye (Reference Compound X). Reference Compound X acts as a reporter of bromodomain binding and is the acceptor fluorophore component of the TR-FRET pair. Europium chelate, conjugated to an anti-6*His antibody, was utilised as the donor fluorophore in the TR-FRET pair. […] A TR-FRET signal is generated when the donor and acceptor fluorophores are in close proximity, between 20-80 Å, which is enabled in this assay by binding of Reference Compound X to the bromodomain protein.
If the acceptor fluorophore is in close proximity then energy transfer can occur, which leads to emission of Alexa Fluor® 647 at λ665 nm. In the presence of competitor compound, Reference Compound X can be displaced from binding to the bromodomain. If displacement occurs, the acceptor fluorophore is no longer in proximity to the donor fluorophore, which prevents fluorescent energy transfer and, subsequently, a loss of Alexa Fluor® 647 emission at λ665 nm.
The competition of the compounds of formula (I) with Reference Compound X for binding to the BET family (BRD2, BRD3, BRD4 and BRDT) was assessed using protein truncates spanning both bromodomain 1 (BD1) and bromodomain 2 (BD2). In order to monitor differential binding to either BD1 or BD2, single residue mutations of key tyrosines to alanine were made in the acetyl lysine binding pockets. To validate this approach, a double residue mutant tandem domain protein was produced for each of the BET family members. Utilising a Fluorescence Polarisation approach, binding affinities for each of the single and double mutants for Reference Compound X were determined. […] Final purification was completed by Superdex 200 prep grade size exclusion column. Purified protein was stored at −80° C. in 20 mM HEPES pH 7.5 and 100 mM NaCl.
Protocol for Bromodomain BRD2, 3, 4 and T, BD1+BD2 mutant TR-FRET competition assays: All assay components were dissolved in an assay buffer composing of 50 mM HEPES pH7.4, 50 mM NaCl, 5% Glycerol, 1 mM DTT and 1 mM CHAPS. Reference Compound X was diluted, in assay buffer containing 20 nM single mutant, tandem bromodomain protein, to a concentration equivalent to 2*Kd for this bromodomain. The solution containing bromodomain and Reference Compound X was added to dose response dilutions of test compound or DMSO vehicle (a maximum of 0.5% DMSO is used in this assay) in Greiner 384 well black low volume microtitre plates and subsequently incubated for 30 minutes at room temperature. An equal volume of 3 nM of anti-6*His Europium chelate was added to all wells, followed by a further 30 minute incubation at room temperature. TR-FRET was detected using a Perkin Elmer Multimode plate reader, by exciting the donor fluorophore at λ337 nm and subsequently, after a delay of 50 μsecs, measuring emission of the donor and acceptor fluorophores at λ615 nm and λ665 nm, respectively. In order to control these assays, 16 replicates each of uninhibited (DMSO vehicle) and inhibited (10*IC50 concentrations of Example 11 of WO 2011/054846A1) TR-FRET assays were included on every microtitre plate.
Regarding `CNC(=O)c1cc(C(=O)Nc2nccn2C)cc2c1OCC2c1ccccc1` (centres unmarked) [Example 118, N^7-methyl-N^5-(1-methyl-1H-imidazol-2-yl)-3-phenyl-2,3-dihydrobenzofuran-5,7-dicarboxamide], the IC50 was 1 to 100 µM. The same measure, in the same setting: with `CCNC(=O)c1cc(C(=O)NC)c2c(c1)C(c1cccc(C(=O)OCC)c1)CO2` (single isomer, unassigned) [Example 113, (R*)-ethyl 3-(5-(ethylcarbamoyl)-7-(methylcarbamoyl)-2,3-dihydrobenzofuran-3-yl)benzoate] the figure was 1 to 100 µM; with `CNC(=O)c1cc(C(=O)NC2CC2)cc2c1OCC2C1CCOCC1` (centres unmarked) [Example 104, N^5-cyclopropyl-N^7-methyl-3-(tetrahydro-2H-pyran-4-yl)-2,3-dihydrobenzofuran-5,7-dicarboxamide], 1 to 100 µM.

Consider `CNC(=O)c1cc(C(=O)Nc2nnn(C)n2)cc2c1OC[C@H]2c1ccccc1` [Example 123, (S)-N^7-methyl-N^5-(2-methyl-2H-tetrazol-5-yl)-3-phenyl-2,3-dihydrobenzofuran-5,7-dicarboxamide], for which the IC50 was 1 to 100 µM.

For `CNC(=O)c1cc(C(=O)NCCn2cnnc2)cc2c1OCC2c1ccccc1` (centres unmarked) [Example 110, N^5-(2-(4H-1,2,4-triazol-4-yl)ethyl)-N^7-methyl-3-phenyl-2,3-dihydrobenzofuran-5,7-dicarboxamide], the IC50 is 1 to 100 µM. Consider `CNC(=O)c1cc(C(=O)N[C@H]2C[C@@H]2C)cc2c1OCC2C1CCOCC1` (single isomer, unassigned) [Example 121, (R*)-N^7-methyl-N^5-((1S,2S)-2-methylcyclopropyl)-3-(tetrahydro-2H-pyran-4-yl)-2,3-dihydrobenzofuran-5,7-dicarboxamide], for which the IC50 is 1 to 100 µM.

Turning to `CNC(=O)c1cc(C(=O)NC2CC2)cc2c1OCC2C1CCOCC1` (single isomer, unassigned) [Example 120, (R*)-N^5-cyclopropyl-N^7-methyl-3-(tetrahydro-2H-pyran-4-yl)-2,3-dihydrobenzofuran-5,7-dicarboxamide], the IC50 is 1 to 100 µM. For the compound `CNC(=O)c1cc(C(=O)N[C@H]2[C@@H]3COC[C@@H]32)cc2c1OC[C@@H]2c1ccc(OCCN)cc1` (single isomer, unassigned) [Example 111, (R*)-3-(4-(2-aminoethoxy)phenyl)-N^5-((1R,5S,6r)-3-oxabicyclo[3.1.0]hexan-6-yl)-N^7-methyl-2,3-dihydrobenzofuran-5,7-dicarboxamide], the IC50 was 1 to 100 µM. As for `CNC(=O)c1cc(C(=O)NCCc2cnn(C)c2)cc2c1OCC2c1ccc(F)cc1` (single isomer, unassigned) [Example 119, (R*)-3-(4-fluorophenyl)-N^7-methyl-N^5-(2-(1-methyl-1H-pyrazol-4-yl)ethyl)-2,3-dihydrobenzofuran-5,7-dicarboxamide], the IC50 was 1 to 100 µM.

Another assay has as its system BET family (BRD2, BRD3, BRD4 and BRDT) tandem bromodomain proteins. In words: Fluorescence Polarisation binding of Reference Compound X to mutant tandem BET proteins. Details: species or system Human. The note with it: double residue (Tyr to Ala) mutant tandem domain proteins. The method, then: The competition of the compounds of formula (I) with Reference Compound X for binding to the BET family (BRD2, BRD3, BRD4 and BRDT) was assessed using protein truncates spanning both bromodomain 1 (BD1) and bromodomain 2 (BD2). In order to monitor differential binding to either BD1 or BD2, single residue mutations of key tyrosines to alanine were made in the acetyl lysine binding pockets. To validate this approach, a double residue mutant tandem domain protein was produced for each of the BET family members. Utilising a Fluorescence Polarisation approach, binding affinities for each of the single and double mutants for Reference Compound X were determined. […] The affinities of the single mutated bromdomain tandem proteins for Reference Compound X were equi-potent with the corresponding non-mutated BET protein. […] Final purification was completed by Superdex 200 prep grade size exclusion column. Purified protein was stored at −80° C. in 20 mM HEPES pH 7.5 and 100 mM NaCl. Protein identity was confirmed by peptide mass fingerprinting and predicted molecular weight confirmed by mass spectrometry.
Take `COc1ccc2c(c1)C(c1ccc(Cl)cc1)=N[C@@H](CC(=O)NCCCCCNC(=O)CCCCCC1(C)/C(=C/C=C/C=C/C3=[N+](CCCCS(=O)(=O)O)c4ccc(S(=O)(=O)O)cc4C3(C)C)N(CCCCS(=O)(=O)[O-])c3ccc(S(=O)(=O)O)cc31)c1nnc(C)n1-2` (some centres unmarked) [Reference Compound X]: the “reduction in Kd (affinity), double mutant tandem proteins versus non mutated, wild type tandem BET proteins” value is reported as above 1000 fold.

The same assay, now with this note: single mutated tandem proteins.
Take `COc1ccc2c(c1)C(c1ccc(Cl)cc1)=N[C@@H](CC(=O)NCCCCCNC(=O)CCCCCC1(C)/C(=C/C=C/C=C/C3=[N+](CCCCS(=O)(=O)O)c4ccc(S(=O)(=O)O)cc4C3(C)C)N(CCCCS(=O)(=O)[O-])c3ccc(S(=O)(=O)O)cc31)c1nnc(C)n1-2` (some centres unmarked) [Reference Compound X]: the “affinities of the single mutated bromodomain tandem proteins versus the corresponding non-mutated BET protein” value is listed as “equi-potent”.

These data come from US11273146B2, “Benzofuran derivatives and their use as bromodomain inhibitors” (GLAXOSMITHKLINE INTELLECTUAL PROPERTY (NO. 2) LIMITED, priority 2017, dated 2022).
